The target in assay [1] is His6-ERα298-554 WT (ERα ligand-binding domain) (Homo sapiens (Human), UniProt P03372). Put plainly: Test A: biochemical antagonist activity, LanthaScreen TR-FRET ERα coactivator assay, WT. The note with it: protocol with 3 nM estradiol; read-out: Antagonism WT IC50. How it is done:
(§1) Test A: Biochemical Antagonist Activity on Wild Type (WT) and Mutants
(§2) Estrogen Receptors Test A involves measuring the in vitro antagonist activity of the compounds of the invention on estrogen receptors.
(§3) The measurements of the antagonist activities were made using an estrogen receptor coactivator assay as described hereunder.
(§4) Antagonistic potency of compounds was evaluated using LanthaScreen® TR-FRET ERα Coactivator Assay (ThermoFisher) with modifications. […] The assay works in a homogeneous mix-and-read format. In a typical experiment, a 4 μL mixture of 0.5 nM His6-ERα298-554, 0.5 nM Tb-labeled His6 antibody, 250 nM PGC1a peptide, and 3 nM estradiol (or 10 nM estradiol) in 100 mM potassium phosphate, pH 7.4, 0.01% Tween-20, 0.02% NaN3, 5 mM DTT, was added to 40 nL test compound in DMSO and incubated overnight at room temperature. The TR-FRET 520:495 nm emission ratio was calculated and used to determine the IC50 value from a dose response curve fit to the 4-parameter logistic equation.
In general terms: TR-FRET usually uses a lanthanide donor and a delayed reading to cut background.

Assay [2] addresses ERα in MCF7 cells (Homo sapiens (Human), UniProt P03372). Put plainly: Test C: estrogen receptor degradation activity, ERα in cell western assay in MCF7 cells. The class given is cell-based. The note with it: for DC50: 4 hours post compound addition, ERα in cell western, read-out: Degradation IC50; for % Degradation at 3 μM: 4 hours, relative to fulvestrant. How it is done: Test C: Estrogen Receptor Degradation Activity
Test C involves measuring the in vitro degradation activity of the compounds of the invention.
The measurements of the degradation activities were made using abreast cancer cell ERα in cell western assay as described hereunder.
MCF7 cells (ATCC) were seeded in 384 wells microplate (collagen coated) at concentration of >9990 cells/30 μL per well in red phenol free MEM alpha medium (invitrogen) containing 5% charcoal dextran striped FBS. The following day, 9 points serial 1:5 dilution of each compound were added to the cells in 2.5 μL at final concentrations ranging from 3-0.000018 μM or 0.1 μM for fulvestrant (using as positive control). At 4 hours post compounds addition the cells were fixed by adding 25 μL of formalin (final concentration 5% formalin containing 0.1% triton) for 10 minutes at room temperature and then washed twice with PBS. Then, 50 μL of LI-COR blocking buffer containing 0.1% Triton was added to plate for 30 minutes at room temperature. LI-COR blocking buffer was removed and cells were incubated overnight at cold room with 50 μL anti-ER rabbit monoclonal antibody (Thermo scientific MA1-39540) diluted at 1:>999 in LI-COR blocking buffer containing 0.1% tween-20. Wells which were treated with blocking but no antibody were used as background control. Wells were washed twice with PBS (0.1% tween-20) and incubated at 37° C. for 60 minutes in LI-COR (0.1% tween-20) containing goat anti-rabbit antibody Alexa 488 (1:>999) and Syto-64 a DNA dye (2 μM final concentration). Cells were then washed 3 times in PBS and scanned in ACUMEN explorer (TTP-Labtech). Integrated intensities in the green fluorescence and red fluorescence were measured to determine the levels of ERα and DNA respectively.

Assay [3] has as its target His6-ERα298-554 D538G mutant (ERα ligand-binding domain) (Homo sapiens (Human), UniProt P03372, D538G). The experiment in a line: Test A: biochemical antagonist activity, LanthaScreen TR-FRET ERα coactivator assay, D538G mutant. To be noted: protocol with 3 nM estradiol; read-out: Antagonism D538G IC50. On the procedure: as §1, §2, §3, §4
In assay [4] the target is His6-ERα298-554 Y537S mutant (ERα ligand-binding domain) (Homo sapiens (Human), UniProt P03372, Y537S). Put plainly: Test A: biochemical antagonist activity, LanthaScreen TR-FRET ERα coactivator assay, Y537S mutant. The note with it: protocol with 3 nM estradiol; read-out: Antagonism Y537S IC50. On the procedure: as §1, §2, §3, §4

Experimental findings from US11149031B2, “Substituted N-(3-fluoropropyl)-pyrrolidine compounds, processes for their preparation and therapeutic uses thereof” (SANOFI, priority 2016, dated 2021) are described below.

The IC50 is the concentration that inhibits the measured activity by half.

Sequence of His6-ERα298-554 WT (ERα ligand-binding domain) (P03372 298-554): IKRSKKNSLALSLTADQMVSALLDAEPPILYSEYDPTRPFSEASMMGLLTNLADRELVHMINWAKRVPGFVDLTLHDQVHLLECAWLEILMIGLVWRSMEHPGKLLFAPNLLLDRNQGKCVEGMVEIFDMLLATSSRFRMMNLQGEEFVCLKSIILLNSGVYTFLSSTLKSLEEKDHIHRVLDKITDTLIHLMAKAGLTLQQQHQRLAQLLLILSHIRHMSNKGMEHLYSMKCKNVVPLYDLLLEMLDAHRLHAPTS
Sequence of His6-ERα298-554 Y537S mutant (ERα ligand-binding domain) (P03372 298-554 Y537S): as the sequence (P03372 298-554) above, with Y240S counted along it
Sequence of ERα in MCF7 cells (P03372 whole entry): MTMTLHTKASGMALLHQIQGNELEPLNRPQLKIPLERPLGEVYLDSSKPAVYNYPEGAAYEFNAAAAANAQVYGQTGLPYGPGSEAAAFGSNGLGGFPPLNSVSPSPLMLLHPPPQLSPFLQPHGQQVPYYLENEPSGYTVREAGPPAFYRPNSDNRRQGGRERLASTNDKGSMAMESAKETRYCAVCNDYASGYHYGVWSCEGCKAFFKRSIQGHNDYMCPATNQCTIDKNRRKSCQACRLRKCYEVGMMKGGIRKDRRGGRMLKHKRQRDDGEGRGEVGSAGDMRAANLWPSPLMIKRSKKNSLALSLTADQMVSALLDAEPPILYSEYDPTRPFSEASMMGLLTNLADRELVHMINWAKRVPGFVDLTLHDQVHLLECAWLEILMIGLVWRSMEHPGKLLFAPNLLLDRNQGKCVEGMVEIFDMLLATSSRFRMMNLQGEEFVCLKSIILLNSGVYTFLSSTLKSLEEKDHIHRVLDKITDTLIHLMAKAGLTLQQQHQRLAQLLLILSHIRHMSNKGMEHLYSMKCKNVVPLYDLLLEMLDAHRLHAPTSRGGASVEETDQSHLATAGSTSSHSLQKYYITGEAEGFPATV
Sequence of His6-ERα298-554 D538G mutant (ERα ligand-binding domain) (P03372 298-554 D538G): as the sequence (P03372 298-554) above, with D241G counted along it

Regarding `Cc1cc(C2=C(c3ccc(O[C@H]4CCN(CCCF)C4)cc3)c3ccc(O)cc3OCC2)ccc1Cl` [Example 99, 4-(4-chloro-3-methyl-phenyl)-5-[4-[(3S)-1-(3-fluoropropyl)pyrrolidin-3-yl]oxyphenyl]-2,3-dihydro-1-benzoxepin-8-ol], the IC50 in assay [1] amounted to 5 nM; in assay [3], 36 nM; in assay [4], 25 nM. For the same compound, in assay [2], the DC50 was 0.7 nM. The “% Degradation at 3 μM” value in assay [2] stood at 89%.
Turning to `Cc1cc(F)ccc1C1=C(c2ccc(O[C@H]3CCN(CCCF)C3)cc2)c2ccc(O)cc2OCC1` [Example 100, 4-(4-fluoro-2-methyl-phenyl)-5-[4-[(3S)-1-(3-fluoropropyl)pyrrolidin-3-yl]oxyphenyl]-2,3-dihydro-1-benzoxepin-8-ol], the IC50 in assay [1] came out at 7 nM; in assay [3], 54 nM; in assay [4] it was 25 nM. In assay [2], the DC50 turned out to be 0.2 nM. Further, in assay [2], the “% Degradation at 3 μM” value amounted to 88%.
For `Cc1c(Cl)cccc1C1=C(c2ccc(O[C@H]3CCN(CCCF)C3)cc2)c2ccc(O)cc2OCC1` [Example 101, 4-(3-chloro-2-methyl-phenyl)-5-[4-[(3S)-1-(3-fluoropropyl)pyrrolidin-3-yl]oxyphenyl]-2,3-dihydro-1-benzoxepin-8-ol], the IC50 amounted to 6 nM in assay [1], 50 nM in assay [3] and 25 nM in assay [4]. For the same compound, the DC50 in assay [2] was found to be 0.6 nM. The “% Degradation at 3 μM” value in assay [2] is listed as 92%.
Consider `Oc1ccc2c(c1)OCCC(c1ccc3c(c1)CCN3)=C2c1ccc(O[C@H]2CCN(CCCF)C2)cc1` [Example 104, 5-[4-[(3S)-1-(3-fluoropropyl)pyrrolidin-3-yl]oxyphenyl]-4-indolin-5-yl-2,3-dihydro-1-benzoxepin-8-ol], for which the IC50 in assay [1] came to 12 nM; in assay [3] it was 54 nM; in assay [4], 23 nM. The DC50 in assay [2] amounted to 0.2 nM. Besides, the “% Degradation at 3 μM” value in assay [2] is 88%.
Turning to `Cc1ccc(C2=C(c3ccc(O[C@H]4CCN(CCCF)C4)cc3)c3ccc(O)c(Cl)c3OCC2)c(F)c1` [Example 108, 9-chloro-4-(2-fluoro-4-methyl-phenyl)-5-[4-[(3S)-1-(3-fluoropropyl)pyrrolidin-3-yl]oxyphenyl]-2,3-dihydro-1-benzoxepin-8-ol], the IC50 in assay [1] worked out at 30 nM; in assay [3], 221 nM; in assay [4], 129 nM. Moreover, the DC50 in assay [2] is 3 nM. The “% Degradation at 3 μM” value in assay [2] is 86%.
With `Cc1c(Cl)cccc1C1=C(c2ccc(O[C@H]3CCN(CCCF)C3)cc2)c2ccc(O)c(Cl)c2OCC1` [Example 109, 9-chloro-4-(3-chloro-2-methyl-phenyl)-5-[4-[(3S)-1-(3-fluoropropyl)pyrrolidin-3-yl]oxyphenyl]-2,3-dihydro-1-benzoxepin-8-ol], the IC50 in assay [1] is 29 nM; in assay [3], 215 nM; in assay [4], 150 nM. The DC50 in assay [2] stood at 1 nM. Moreover, the “% Degradation at 3 μM” value in assay [2] was found to be 90%.
As for `Cc1ccc(C2=C(c3ccc(O[C@H]4CCN(CCCF)C4)cc3)c3ccc(O)c(C)c3OCC2)c(F)c1` [Example 111, 4-(2-fluoro-4-methyl-phenyl)-5-[4-[(3S)-1-(3-fluoropropyl)pyrrolidin-3-yl]oxyphenyl]-9-methyl-2,3-dihydro-1-benzoxepin-8-ol], the IC50 in assay [1] stood at 91 nM; in assay [3], 822 nM; in assay [4], 407 nM. The DC50 in assay [2] worked out at 6 nM. Also, in assay [2], the “% Degradation at 3 μM” value is 86%.
For the compound `Cc1c(Cl)cccc1C1=C(c2ccc(O[C@H]3CCN(CCCF)C3)cc2)c2ccc(O)c(C)c2OCC1` [Example 112, 4-(3-chloro-2-methyl-phenyl)-5-[4-[(3S)-1-(3-fluoropropyl)pyrrolidin-3-yl]oxyphenyl]-9-methyl-2,3-dihydro-1-benzoxepin-8-ol], the IC50 is 91 nM in assay [1], 838 nM in assay [3] and 543 nM in assay [4]. The DC50 in assay [2] was 4 nM. Besides, the “% Degradation at 3 μM” value in assay [2] is 87%.
Take `Oc1ccc2c(c1Cl)OCCC(c1ccc3[nH]ccc3c1)=C2c1ccc(O[C@H]2CCN(CCCF)C2)cc1` [Example 114, 9-chloro-5-[4-[(3S)-1-(3-fluoropropyl)pyrrolidin-3-yl]oxyphenyl]-4-(1H-indol-5-yl)-2,3-dihydro-1-benzoxepin-8-ol]: the figures for the IC50 in assay [1], in assay [3] and in assay [4] were 29 nM, 178 nM and 104 nM, respectively. Further, the DC50 in assay [2] is 5 nM. Moreover, the “% Degradation at 3 μM” value in assay [2] was 71%.
In the case of `Oc1ccc2c(c1Cl)OCCC(c1ccc3c(c1)CCN3)=C2c1ccc(O[C@H]2CCN(CCCF)C2)cc1` [Example 115, 9-chloro-5-[4-[(3S)-1-(3-fluoropropyl)pyrrolidin-3-yl]oxyphenyl]-4-indolin-5-yl-2,3-dihydro-1-benzoxepin-8-ol], the IC50 in assay [1] is 88 nM; in assay [3], 322 nM; in assay [4] it was 200 nM. Also, the DC50 in assay [2] is 6 nM. For the same compound, in assay [2], the “% Degradation at 3 μM” value turned out to be 77%.
`Oc1ccc2c(c1)OCCC(c1cccc3c1CCN3)=C2c1ccc(O[C@H]2CCN(CCCF)C2)cc1` [Example 117, 5-[4-[(3S)-1-(3-fluoropropyl)pyrrolidin-3-yl]oxyphenyl]-4-indolin-4-yl-2,3-dihydro-1-benzoxepin-8-ol]: the IC50 was determined as 32 nM in assay [1], 309 nM in assay [3] and 214 nM in assay [4]. Further, the DC50 in assay [2] was 3 nM. The “% Degradation at 3 μM” value in assay [2] was found to be 92%.
As to `Cc1c(O)ccc2c1OCCC(c1ccc3c(c1)CCN3)=C2c1ccc(O[C@H]2CCN(CCCF)C2)cc1` [Example 118, 5-[4-[(3S)-1-(3-fluoropropyl)pyrrolidin-3-yl]oxyphenyl]-4-indolin-5-yl-9-methyl-2,3-dihydro-1-benzoxepin-8-ol], the IC50 was 152 nM in assay [1], 442 nM in assay [3] and 237 nM in assay [4]. In assay [2], the DC50 was found to be 126 nM. Also, the “% Degradation at 3 μM” value in assay [2] is 74%.
Take `Cc1cccc(C2=C(c3ccc(O[C@H]4CCN(CCCF)C4)cc3)c3ccc(O)cc3OCC2)c1C` [Example 122, 4-(2,3-dimethylphenyl)-5-[4-[(3S)-1-(3-fluoropropyl)pyrrolidin-3-yl]oxyphenyl]-2,3-dihydro-1-benzoxepin-8-ol]: the IC50 in assay [1] worked out at 3 nM; in assay [3] it was 41 nM; in assay [4], 24 nM. Further, the DC50 in assay [2] amounted to 0.3 nM. Further, the “% Degradation at 3 μM” value in assay [2] turned out to be 91%.
In the same order, the values of `Oc1ccc2c(c1Cl)OCCC(c1ccc3cc[nH]c3c1)=C2c1ccc(O[C@H]2CCN(CCCF)C2)cc1` [Example 123, 9-chloro-5-[4-[(3S)-1-(3-fluoropropyl)pyrrolidin-3-yl]oxyphenyl]-4-(1H-indol-6-yl)-2,3-dihydro-1-benzoxepin-8-ol] are 156 nM, 2290 nM, 1430 nM, 15 nM and 81%.
On to `Oc1ccc2c(c1Cl)OCCC(c1ccc3c(c1)NCC3)=C2c1ccc(O[C@H]2CCN(CCCF)C2)cc1` [Example 125, 9-chloro-5-[4-[(3S)-1-(3-fluoropropyl)pyrrolidin-3-yl]oxyphenyl]-4-indolin-6-yl-2,3-dihydro-1-benzoxepin-8-ol], for which the IC50 was 190 nM in assay [1], 1340 nM in assay [3] and 945 nM in assay [4]. The DC50 in assay [2] was determined as 4 nM. The “% Degradation at 3 μM” value in assay [2] is 84%.
